# Data from the RepoRT retention time repository.
# Counter-ions that a name gives are not always drawn.
# Assay: RP, Phenomenex Kinetex C18, 100 × 2.1 mm, 1.7 µm, 40 °C, 0.5 mL/min, estimated dead time 0.44 min; A: water + 1 mM ammonium fluoride; B: acetonitrile; gradient (min/%B) 0/10 2/10 22/100 27/100 27.1/10
# Details: stereoisomer not certain
row,SMILES,LC retention time [min]
1,C[C@H](CCC(=O)O)[C@H]1CC[C@H]2[C@@H]3CC[C@@H]4CC(=O)CC[C@]4(C)[C@H]3CC[C@]12C [3-Oxo-5beta-cholanoic Acid],13.4
2,CC(CCCC(C)C1CCC2C3C(O)CC4=CC(=O)CCC4(C)C3CCC12C)C(=O)O (configuration not stated) [7-Hydroxy-3-oxo-Cholest-4-en-26-oic Acid],12
3,CC(CCC(=O)O)C1CCC2C3C(O)CC4CC(O)CCC4(C)C3CC(=O)C12C (configuration not stated) [12-Ketochenodeoxycholic acid],7.88
4,"CC(CCCC(C)C1CCC2C3CCC4=CC(=O)C=CC4(C)C3CCC12C)C(=O)O [(25S)-d1,4-Dafachronic acid]",14.5
5,"CC(CCCC(C)C1CCC2C3=CCC4CC(=O)C=CC4(C)C3CCC21C)C(=O)O [(25S)-d1,7-Dafachronic acid]",14.4
6,CC(CCCC(C)C1CCC2C3CCC4CC(=O)C=CC4(C)C3CCC12C)C(=O)O [(25S)-d1-Dafachronic acid],15.9
7,"CC(CCCC(C)C1CCC2=C3C=CC4=CC(=O)CCC4(C)C3CCC21C)C(=O)O [(25S)-d4,6,8(14)-Dafachronic acid]",14.3
8,CC(CCCC(C)C1CCC2=C3CCC4CC(=O)CCC4(C)C3CCC21C)C(=O)O [(25S)-d8(14)-Dafachronic acid],15.9
9,CCCCCCCCCCCCCCCCCCCC(=O)O [Arachidic acid],20.3
10,CCCCCCCCCC(=O)O [Decanoic acid],10.3
11,CC(CCC(=O)O)C1CCC2C3C(=O)CC4CC(=O)CCC4(C)C3CC(=O)C12C (configuration not stated) [Dehydrocholic acid],7.14
12,CC(CCC(=O)NCC(=O)O)C1CCC2C3C(O)CC4CC(O)CCC4(C)C3CC(O)C12C (configuration not stated) [Glycocholic acid],6.87
13,CC(CCC(=O)NCC(=O)O)C1CCC2C3C(=O)CC4CC(=O)CCC4(C)C3CC(=O)C12C (configuration not stated) [Glycodehydrocholic acid],5.21
14,CC(CCC(=O)NCC(=O)O)C1CCC2C3CCC4CC(O)CCC4(C)C3CC(O)C12C (configuration not stated) [Glycodeoxycholic acid],7.98
15,CC(CCC(=O)NCC(=O)O)C1CCC2C3CC(O)C4CC(O)CCC4(C)C3CCC12C (configuration not stated) [Glycohyodeoxycholic Acid],6.88
16,CC(CCC(=O)NCC(=O)O)C1CCC2C3CCC4CC(O)CCC4(C)C3CCC12C (configuration not stated) [Glycolithocholic Acid sodium salt],9.22
17,CC(CCC(=O)O)C1CCC2C3CCC4CC(O)CCC4(C)C3CCC12C (configuration not stated) [Lithocholic acid],13.1
18,CC(CC(=O)O)C1CCC2C3CCC4CC(O)CCC4(C)C3CC(O)C12C (configuration not stated) [Nor-Desoxycholic Acid],9.58
19,CC(CCC(=O)O)C1CCC2C3C(=O)CC4CC(O)CCC4(C)C3CCC12C (configuration not stated) [Nutriacholic Acid],9.67
20,CC(CCC(=O)NCCS(=O)(=O)O)C1CCC2C3C(O)CC4CC(O)CCC4(C)C3CC(O)C12C (configuration not stated) [Taurocholic acid],6.97
21,CC(CCC(=O)NCCS(=O)(=O)O)C1CCC2C3CCC4CC(O)CCC4(C)C3CC(O)C12C (configuration not stated) [Taurodeoxycholic acid],8.04
22,CC(CCC(=O)NCCS(=O)(=O)O)C1CCC2C3CCC4CC(O)CCC4(C)C3CCC12C (configuration not stated) [Taurolithocholic acid],9.12
